Source: patent publication US8642011B2 (priority 2006, dated 2014)
≈ marks a conversion by molar mass, not a printed value.

How the values were obtained:
Assay in all cases: microbe, parasite or virus in culture
Details in all cases: Mycobacterium tuberculosis, read-out: minimum inhibitory concentration (MIC)
[1] = tested on: M. tuberculosis strains H37Rv; assay type: cell-based
SO2 strain = assay type: cell-based, M. tuberculosis
MT103 (wild type) = assay type: cell-based, M. tuberculosis

With `CC[C@@H](CO)NCCN[C@@H](CC)CO` [Ethambutol] the MIC [1] was 2 µg/mL (≈ 9.79 µM), the MIC (SO2 strain) was 2 µg/mL (≈ 9.79 µM) and the MIC (MT103 (wild type)) was 2 µg/mL (≈ 9.79 µM).
`NNC(=O)c1ccncc1` [Isoniazid] showed an MIC [1] of 0.5 µg/mL (≈ 3.65 µM), an MIC (SO2 strain) of 0.25 µg/mL (≈ 1.82 µM) and an MIC (MT103 (wild type)) of 0.5 µg/mL (≈ 3.65 µM).
With `CO[C@H]1/C=C/O[C@@]2(C)Oc3c(C)c(O)c4c(O)c(c(/C=N/N5CCN(C)CC5)c(O)c4c3C2=O)NC(=O)/C(C)=C\C=C\[C@H](C)[C@H](O)[C@@H](C)[C@@H](O)[C@@H](C)[C@H](OC(C)=O)[C@@H]1C` [Rifampicin] the MIC [1] was < 0.004 µg/mL, the MIC (SO2 strain) was < 0.004 µg/mL and the MIC (MT103 (wild type)) was < 0.004 µg/mL.
In the case of `[H]/N=C(/N)N[C@H]1[C@H](O)[C@@H](O)[C@H](O[C@@H]2O[C@@H](C)[C@](O)(C=O)[C@H]2O[C@@H]2O[C@@H](CO)[C@H](O)[C@@H](O)[C@@H]2NC)[C@@H](N/C(N)=N\[H])[C@@H]1O` [Streptomycin], the MIC [1] is reported as < 0.5 µg/mL, the MIC (SO2 strain) is reported as < 0.5 µg/mL and the MIC (MT103 (wild type)) is reported as < 0.5 µg/mL.
